The text below walks through data of ChEMBL document CHEMBL3351987, “Synthesis and biological evaluation of isoprenylated coumarins as potential anti-pancreatic cancer agents” (2014).

A short description of test [1]: Cytotoxicity against human PANC1 cells under nutrient-deprived condition after 24 hrs by WST8 dye based assay. The class given is functional. Conditions: PANC-1, 24 h, read-out: LC50 (the source's name).
Test [2] is described as follows: Cytotoxicity against human PANC1 cells under nutrient-rich condition after 24 hrs by WST8 dye based assay. Type of test: functional. Conditions: PANC-1, 24 h, read-out: LC50 (the source's name).
Test [3] concerns PANC-1. Put plainly: Induction of apoptosis in human PANC1 cells under nutrient-deprived condition after 24 hrs. Type of test: functional, cell-based.
For test [4], the system named is PANC-1. Put plainly: Stimulation of cell growth in human PANC1 cells at 6.25 to 50 uM under nutrient-deprived condition after 24 hrs by WST8 dye based assay. Type of test: functional.

Regarding `CC(C)=CCC/C(C)=C/CC/C(C)=C/COc1cc2ccccc2oc1=O`, the CC50 in test [1] was 12 µM; in test [2], above 100 µM.
Regarding `CC(C)=CCC/C(C)=C/COc1cc2ccccc2oc1=O`, the CC50 in test [1] is 37 µM; in test [2], above 100 µM.
On the same counts, the results for `CC(C)=CCOc1cc2ccccc2oc1=O` are above 100 µM and above 100 µM.
On to `CC(C)=CCOc1ccc2oc(=O)ccc2c1`, for which the CC50 in test [1] and in test [2] was above 100 µM in each case.
With `CC(C)=CCC/C(C)=C/COc1ccc2oc(=O)ccc2c1`, the CC50 was 12 µM in test [1] and above 100 µM in test [2].
With `CC(C)=CCC/C(C)=C/CC/C(C)=C/COc1ccc2oc(=O)ccc2c1`, the CC50 is 4 µM in test [1] and above 100 µM in test [2]. The Activity entry in test [3] was “Dose-dependent effect”.
Take `CC(C)=CCO`: the CC50 in test [1] and in test [2] was above 100 µM in each case.
For the compound `O=c1oc2ccccc2cc1O` [3-HYDROXYCOUMARIN], the CC50 in test [1] and in test [2] was above 100 µM in each case.
For the compound `O=c1ccc2cc(O)ccc2o1` [6-HYDROXYCOUMARIN], the CC50 in test [1] and in test [2] was above 100 µM each time.
Turning to `CC(C)=CCOc1ccc2ccc(=O)oc2c1` [7-PRENYLOXYCOUMARIN], the CC50 was 83 µM in test [1] and above 100 µM in test [2].
On the same counts, the results for `CC(C)=CCC/C(C)=C/COc1ccc2ccc(=O)oc2c1` [AURAPTENE] are 21 µM and above 100 µM.
For the compound `CC(C)=CCC/C(C)=C/CC/C(C)=C/CO` [FARNESOL], in test [2], the CC50 is above 100 µM. In addition, the Activity in test [4] is on record as 40%.
Consider `CC(C)=CCC/C(C)=C/CO` [GERANIOL], for which the CC50 in test [2] was above 100 µM. In test [4], this compound had an Activity of 20%.
With `O=c1ccc2ccc(O)cc2o1` [UMBELLIFERONE], the CC50 in test [1] and in test [2] was above 100 µM each time.
`CC(C)=CCC/C(C)=C/CC/C(C)=C/COc1ccc2ccc(=O)oc2c1` [UMBELLIPRENIN]: the CC50 was 18 µM in test [1] and above 100 µM in test [2].
